Test results: patent US20230085307A1, “PYRIDAZINONE COMPOUND AND HERBICIDE” (NISSAN CHEMICAL CORPORATION, priority 2019, published 2023)

Assays:
barnyard grass [1] = test: Test Example 5: herbicidal effect by foliage application, plastic box (Table 20, symbol H); assay type: in vivo, barnyard grass (Echinochloa crus-galli); conditions: foliage application, 320 g/ha, 3 weeks after application
Summary of the method: (§1)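 Foliar spray test: emulsion formulation diluted in water to a set application rate, sprayed onto 14-day-old plants raised in diluvial soil at 25° C to 30° C under glass. Both herbicidal effect and crop effect rated visually three weeks later.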

velvetleaf [2] = test: Test Example 4: herbicidal effect by soil treatment (Table 19, symbol M); assay type: in vivo, velvetleaf (Abutilon theophrasti); conditions: for herbicidal effect rating, M: velvetleaf: 320 g/ha; for M: velvetleaf, herbicidal effect rating: AAH 320 g/ha
Summary of the method: (§2)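 Herbicidal effect was rated 3 weeks after treatment, using the scoring criteria of an earlier test. The compound, formulated as an emulsion and diluted in water to a set herbicide amount, had been sprayed uniformly on soil over freshly sown seeds. Growth took place in a greenhouse at 25° C. to 30° C.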

windgrass = test: Test Example 4: herbicidal effect by soil treatment (Table 19, symbol L); assay type: in vivo, windgrass (Apera spica-venti); conditions: for herbicidal effect rating, L: windgrass: 320 g/ha; for L: windgrass, herbicidal effect rating: AAH 320 g/ha
Summary of the method: as §2

lambsquarters [3] = test: Test Example 5: herbicidal effect by foliage application, plastic box (Table 20, symbol O); assay type: in vivo, lambsquarters (Chenopodium album); conditions: foliage application, 320 g/ha, 3 weeks after application
Summary of the method: as §1

Chinese sprangletop = test: Test Example 3: herbicidal effect by foliage application, Wagner pot (Table 18, symbol D); assay type: in vivo, chinese sprangletop (Leptochloa chinensis); conditions: 320 g/ha
Summary of the method: (§3)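 Plants were sown in alluvial soil held under 0.1–0.5 cm standing water and grown 14 days in a greenhouse at 25–30 °C. An emulsifiable formulation, water-diluted to the set dose, was then sprayed onto the foliage, and effects were scored three weeks later using previously defined criteria.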

persian speedwell = test: Test Example 4: herbicidal effect by soil treatment (Table 19, symbol R); assay type: in vivo, Persian speedwell (Veronica persica); conditions: for herbicidal effect rating, R: persian speedwell: 320 g/ha; for R: persian speedwell, herbicidal effect rating: AAH 320 g/ha
Summary of the method: as §2

lambsquarters [4] = test: Test Example 4: herbicidal effect by soil treatment (Table 19, symbol O); assay type: in vivo, lambsquarters (Chenopodium album); conditions: for herbicidal effect rating, O: lambsquarters: 320 g/ha; for O: lambsquarters, herbicidal effect rating: AAH 320 g/ha
Summary of the method: as §2

velvetleaf [5] = test: Test Example 5: herbicidal effect by foliage application, plastic box (Table 20, symbol M); assay type: in vivo, velvetleaf (Abutilon theophrasti); conditions: foliage application, 320 g/ha, 3 weeks after application
Summary of the method: as §1

barnyard grass [6] = test: Test Example 4: herbicidal effect by soil treatment (Table 19, symbol H); assay type: in vivo, barnyard grass (Echinochloa crus-galli); conditions: for herbicidal effect rating, H: barnyard grass: 320 g/ha; for H: barnyard grass, herbicidal effect rating: AAH 320 g/ha
Summary of the method: as §2

Italian ryegrass = test: Test Example 5: herbicidal effect by foliage application, plastic box (Table 20, symbol K); assay type: in vivo, Italian ryegrass (Lolium multiflorum); conditions: foliage application, 320 g/ha, 3 weeks after application
Summary of the method: as §1

Japanese bulrush = test: Test Example 1: herbicidal activity, application before weed generation under submerged conditions (Table 16, symbol B); assay type: in vivo, Japanese bulrush (Schoenoplectus juncoides); conditions: 320 g/ha applied herbicide
Summary of the method: (§4)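 Alluvial soil was flooded to 4 cm depth, weed seeds were sown mixed and 2.5-leaf rice seedlings were transplanted. On sowing day, the compound's emulsion, diluted in water to a set dose, was applied to the water surface. Plants grew at 25–30 °C and were scored 0–5 after three weeks.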

barnyard grass [7] = test: Test Example 3: herbicidal effect by foliage application, Wagner pot (Table 18, symbol H); assay type: in vivo, barnyard grass (Echinochloa crus-galli); conditions: 320 g/ha
Summary of the method: as §3

oval-leafed pondweed = test: Test Example 1: herbicidal activity, application before weed generation under submerged conditions (Table 16, symbol C); assay type: in vivo, oval-leafed pondweed (Monochoria vaginalis); conditions: 320 g/ha applied herbicide
Summary of the method: as §4

late watergrass = test: Test Example 2: herbicidal activity, application during weed generation under submerged conditions (Table 17, symbol A); assay type: in vivo, late watergrass (Echinochloa oryzicola); conditions: AAH 320 g/ha; application during weed generation, submerged conditions
Summary of the method: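 Wagner pot, alluvial soil, 4 cm flood; mixed sowing of all species; greenhouse 25° C.–30° C. Emulsifiable formulation, water-diluted to predetermined dose, applied to paddy water at 1–2 leaf stage. Effect rated at 3 wk using the earlier test's scoring criteria.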

blackgrass = test: Test Example 5: herbicidal effect by foliage application, plastic box (Table 20, symbol J); assay type: in vivo, blackgrass (Alopecurus myosuroides); conditions: foliage application, 320 g/ha, 3 weeks after application
Summary of the method: as §1

| SMILES | effect on barnyard grass (H) (barnyard grass [1]) | herbicidal effect rating, M: velvetleaf (velvetleaf [2]) | herbicidal effect rating, L: windgrass (windgrass) | effect on lambsquarters (O) (lambsquarters [3]) | herbicidal effect on D (Chinese sprangletop), rating 0-5 (Chinese sprangletop) | herbicidal effect rating, R: persian speedwell (persian speedwell) | herbicidal effect rating, O: lambsquarters (lambsquarters [4]) | effect on velvetleaf (M) (velvetleaf [5]) | herbicidal effect rating, H: barnyard grass (barnyard grass [6]) | effect on Italian ryegrass (K) (Italian ryegrass) | Herbicidal effect on B: Japanese bulrush (grade 0-5) (Japanese bulrush) | herbicidal effect on H (barnyard grass), rating 0-5 (barnyard grass [7]) | Herbicidal effect on C: oval-leafed pondweed (grade 0-5) (oval-leafed pondweed) | herbicidal effect rating, A: late watergrass (late watergrass) | effect on blackgrass (J) (blackgrass) | M: velvetleaf, herbicidal effect rating (velvetleaf [2]) | L: windgrass, herbicidal effect rating (windgrass) | R: persian speedwell, herbicidal effect rating (persian speedwell) | O: lambsquarters, herbicidal effect rating (lambsquarters [4]) | H: barnyard grass, herbicidal effect rating (barnyard grass [6]) |
| --- | --- | --- | --- | --- | --- | --- | --- | --- | --- | --- | --- | --- | --- | --- | --- | --- | --- | --- | --- | --- |
| CCCC(=O)Oc1c(C)nn(C)c(=O)c1-c1c(-c2ccc(CC)cc2)sc2ccc(F)cc12 [2-016] | 3 (Herbicidal rate of 40% or more and less than 70%) | 3 (Herbicidal rate of 40% or more and less than 70%) | 1 (Herbicidal rate of 5% or more and less than 20%) | 5 (Herbicidal rate of 90% or more (almost completely withered)) | 5 (Herbicidal rate of 90% or more (almost completely withered)) | 4 (Herbicidal rate of 70% or more and less than 90%) | 5 (Herbicidal rate of 90% or more (almost completely withered)) | 5 (Herbicidal rate of 90% or more (almost completely withered)) | 1 (Herbicidal rate of 5% or more and less than 20%) | 5 (Herbicidal rate of 90% or more (almost completely withered)) | 3 (Herbicidal rate of 40% or more and less than 70%) | 5 (Herbicidal rate of 90% or more (almost completely withered)) | 5 (Herbicidal rate of 90% or more (almost completely withered)) | 3 (Herbicidal rate of 40% or more and less than 70%) | 1 (Herbicidal rate of 5% or more and less than 20%) |  |  |  |  |  |
| Cc1nn(C)c(=O)c(-c2c(-c3ccc(OCC(F)F)cc3)sc3ccccc23)c1O [1-203] | 5 (Herbicidal rate of 90% or more (almost completely withered)) |  |  | 5 (Herbicidal rate of 90% or more (almost completely withered)) | 4 (Herbicidal rate of 70% or more and less than 90%) |  |  | 5 (Herbicidal rate of 90% or more (almost completely withered)) |  | 5 (Herbicidal rate of 90% or more (almost completely withered)) | 5 (Herbicidal rate of 90% or more (almost completely withered)) | 5 (Herbicidal rate of 90% or more (almost completely withered)) | 4 (Herbicidal rate of 70% or more and less than 90%) | 4 (Herbicidal rate of 70% or more and less than 90%) | 2 (Herbicidal rate of 20% or more and less than 40%) | 5 (Herbicidal rate of 90% or more (almost completely withered)) | 0 (Herbicidal rate of 5% or less (almost no effect)) | 5 (Herbicidal rate of 90% or more (almost completely withered)) | 5 (Herbicidal rate of 90% or more (almost completely withered)) | 5 (Herbicidal rate of 90% or more (almost completely withered)) |
| C#CCSCc1ccc(-c2sc3ccccc3c2-c2c(O)c(C)nn(C)c2=O)cc1 [1-247] | 4 (Herbicidal rate of 70% or more and less than 90%) |  |  | 5 (Herbicidal rate of 90% or more (almost completely withered)) | 1 (Herbicidal rate of 5% or more and less than 20%) |  |  | 5 (Herbicidal rate of 90% or more (almost completely withered)) |  | 4 (Herbicidal rate of 70% or more and less than 90%) | 2 (Herbicidal rate of 20% or more and less than 40%) | 5 (Herbicidal rate of 90% or more (almost completely withered)) | 0 (Herbicidal rate of 5% or less (almost no effect)) | 3 (Herbicidal rate of 40% or more and less than 70%) | 0 (Herbicidal rate of 5% or less (almost no effect)) | 0 (Herbicidal rate of 5% or less (almost no effect)) | 0 (Herbicidal rate of 5% or less (almost no effect)) | 4 (Herbicidal rate of 70% or more and less than 90%) | 3 (Herbicidal rate of 40% or more and less than 70%) | 0 (Herbicidal rate of 5% or less (almost no effect)) |
| C=Cc1ccc(-c2sc3ccc(F)cc3c2-c2c(O)c(C)nn(C)c2=O)cc1 [2-018] | 4 (Herbicidal rate of 70% or more and less than 90%) | 1 (Herbicidal rate of 5% or more and less than 20%) | 2 (Herbicidal rate of 20% or more and less than 40%) | 5 (Herbicidal rate of 90% or more (almost completely withered)) | 4 (Herbicidal rate of 70% or more and less than 90%) | 4 (Herbicidal rate of 70% or more and less than 90%) | 4 (Herbicidal rate of 70% or more and less than 90%) | 5 (Herbicidal rate of 90% or more (almost completely withered)) | 0 (Herbicidal rate of 5% or less (almost no effect)) | 4 (Herbicidal rate of 70% or more and less than 90%) | 3 (Herbicidal rate of 40% or more and less than 70%) | 5 (Herbicidal rate of 90% or more (almost completely withered)) | 0 (Herbicidal rate of 5% or less (almost no effect)) | 3 (Herbicidal rate of 40% or more and less than 70%) | 1 (Herbicidal rate of 5% or more and less than 20%) |  |  |  |  |  |
| COCCOCOc1c(C)nn(C)c(=O)c1-c1c(-c2ccc(OCCSC)cc2)sc2ccccc12 [1-221] | 5 (Herbicidal rate of 90% or more (almost completely withered)) |  |  | 5 (Herbicidal rate of 90% or more (almost completely withered)) | 5 (Herbicidal rate of 90% or more (almost completely withered)) |  |  | 5 (Herbicidal rate of 90% or more (almost completely withered)) |  | 5 (Herbicidal rate of 90% or more (almost completely withered)) | 3 (Herbicidal rate of 40% or more and less than 70%) | 5 (Herbicidal rate of 90% or more (almost completely withered)) | 3 (Herbicidal rate of 40% or more and less than 70%) | 5 (Herbicidal rate of 90% or more (almost completely withered)) | 5 (Herbicidal rate of 90% or more (almost completely withered)) | 2 (Herbicidal rate of 20% or more and less than 40%) | 0 (Herbicidal rate of 5% or less (almost no effect)) | 5 (Herbicidal rate of 90% or more (almost completely withered)) | 4 (Herbicidal rate of 70% or more and less than 90%) | 3 (Herbicidal rate of 40% or more and less than 70%) |
